{"source": "paper PMC10385824", "about": "“Antiproliferative and Tubulin-Destabilising Effects of 3-(Prop-1-en-2-yl)azetidin-2-Ones and Related Compounds in MCF-7 and MDA-MB-231 Breast Cancer Cells” (Pharmaceuticals, 2023)", "key": {"SNB-75": {"test_system": "SNB-75", "test": "NCI-60 SRB screen, CNS cancer", "type": "cell-based, human", "conditions": "Homo sapiens, SNB-75, 48 h"}, "HCT-15": {"test_system": "HCT-15", "test": "NCI-60 SRB screen, colon cancer", "type": "cell-based, human", "conditions": "Homo sapiens, HCT-15, 48 h"}, "NCI/ADR-RES": {"test_system": "NCI/ADR-RES", "test": "NCI-60 SRB screen, ovarian cancer", "type": "cell-based, human", "conditions": "Homo sapiens, 48 h"}, "[1]": {"test_system": "MCF-7 human breast cancer cells", "test": "cells", "conditions": "MCF7, read-out: Antiproliferative Activity IC50"}, "SK-MEL-2": {"test_system": "SK-MEL-2", "test": "NCI-60 SRB screen, melanoma", "type": "cell-based, human", "conditions": "Homo sapiens, SK-MEL-2, 48 h"}, "OVCAR-3": {"test_system": "OVCAR-3", "test": "NCI-60 SRB screen, ovarian cancer", "type": "cell-based, human", "conditions": "Homo sapiens, OVCAR-3, 48 h"}, "[2]": {"test_system": "MDA-MB-231 human breast cancer cells", "test": "Alamar Blue cell viability (antiproliferative) assay", "type": "cell-based", "conditions": "read-out: IC50"}, "UACC-62": {"test_system": "UACC-62", "test": "NCI-60 SRB screen, melanoma", "type": "cell-based, human", "conditions": "Homo sapiens, UACC-62, 48 h"}, "MOLT-4": {"test_system": "MOLT-4", "test": "NCI-60 SRB screen, leukemia", "type": "cell-based, human", "conditions": "Homo sapiens, MOLT-4, 48 h"}, "HS 578T": {"test_system": "HS 578T", "test": "NCI-60 SRB screen, breast cancer", "type": "cell-based", "conditions": "Homo sapiens, Hs-578T, 48 h"}, "PC-3": {"test_system": "PC-3", "test": "NCI-60 SRB screen, prostate cancer", "type": "cell-based, human", "conditions": "Homo sapiens, PC-3, 48 h"}, "SNB-19": {"test_system": "SNB-19", "test": "NCI-60 SRB screen, CNS cancer", "type": "cell-based, human", "conditions": "Homo sapiens, SNB-19, 48 h"}, "TK-10": {"test_system": "TK-10", "test": "NCI-60 SRB screen, renal cancer", "type": "cell-based, human", "conditions": "Homo sapiens, TK-10, 48 h"}, "A498": {"test_system": "A498", "test": "NCI-60 SRB screen, renal cancer", "type": "cell-based, human", "conditions": "Homo sapiens, A498, 48 h"}, "NCI-H460": {"test_system": "NCI-H460", "test": "NCI-60 SRB screen, non-small cell lung cancer", "type": "cell-based, human", "conditions": "Homo sapiens, NCI-H460, 48 h"}, "MALME-3M": {"test_system": "MALME-3M", "test": "NCI-60 SRB screen, melanoma", "type": "cell-based, human", "conditions": "Homo sapiens, Malme-3M, 48 h"}, "UO-31": {"test_system": "UO-31", "test": "NCI-60 SRB screen, renal cancer", "type": "cell-based, human", "conditions": "Homo sapiens, UO-31, 48 h"}, "NCI-H552": {"test_system": "NCI-H552", "test": "NCI-60 SRB screen, non-small cell lung cancer", "type": "cell-based, human", "conditions": "Homo sapiens, 48 h"}, "[3]": {"test_system": "NCI 60 human cancer cell line panel", "test": "NCI 60 cell line screen (SRB), panel values"}, "OVCAR-5": {"test_system": "OVCAR-5", "test": "NCI-60 SRB screen, ovarian cancer", "type": "cell-based, human", "conditions": "Homo sapiens, OVCAR-5, 48 h"}, "NCI-H23": {"test_system": "NCI-H23", "test": "NCI-60 SRB screen, non-small cell lung cancer", "type": "cell-based, human", "conditions": "Homo sapiens, NCI-H23, 48 h"}, "DU-145": {"test_system": "DU-145", "test": "NCI-60 SRB screen, prostate cancer", "type": "cell-based, human", "conditions": "Homo sapiens, DU-145, 48 h"}, "MCF-7": {"test_system": "MCF-7", "test": "cells", "conditions": "Homo sapiens, MCF7, 48 h"}, "T-47D": {"test_system": "T-47D", "test": "NCI-60 SRB screen, breast cancer", "type": "cell-based, human", "conditions": "Homo sapiens, T47D, 48 h"}, "K-562": {"test_system": "K-562", "test": "NCI-60 SRB screen, leukemia", "type": "cell-based, human", "conditions": "Homo sapiens, K562, 48 h"}, "EKVX": {"test_system": "EKVX", "test": "NCI-60 SRB screen, non-small cell lung cancer", "type": "cell-based, human", "conditions": "Homo sapiens, 48 h"}, "SK-MEL-5": {"test_system": "SK-MEL-5", "test": "NCI-60 SRB screen, melanoma", "type": "cell-based, human", "conditions": "Homo sapiens, SK-MEL-5, 48 h"}, "HOP-62": {"test_system": "HOP-62", "test": "NCI-60 SRB screen, non-small cell lung cancer", "type": "cell-based, human", "conditions": "Homo sapiens, HOP-62, 48 h"}, "OVCAR-4": {"test_system": "OVCAR-4", "test": "NCI-60 SRB screen, ovarian cancer", "type": "cell-based, human", "conditions": "Homo sapiens, OVCAR-4, 48 h"}, "M14": {"test_system": "M14", "test": "NCI-60 SRB screen, melanoma", "type": "cell-based, human", "conditions": "Homo sapiens, M14, 48 h"}, "MDA-MB-468": {"test_system": "MDA-MB-468", "test": "NCI-60 SRB screen, breast cancer", "type": "cell-based, human", "conditions": "Homo sapiens, MDA-MB-468, 48 h"}, "HCT-116": {"test_system": "HCT-116", "test": "NCI-60 SRB screen, colon cancer", "type": "cell-based, human", "conditions": "Homo sapiens, HCT-116, 48 h"}}, "note": "Read-outs that look alike come from different tables or passages of the source."}
{"compound": "C=CC=CC1C(=O)N(c2cc(OC)c(OC)c(OC)c2)C1c1ccc(OC)cc1", "note": "(centres unmarked) [11h, 3-(Buta-1,3-dienyl)-4-(4-methoxyphenyl)-1-(3,4,5-trimethoxyphenyl)azetidin-2-one]", "values": [{"measurement": "GI50", "setting": "SNB-75", "value": 30.7, "unit": "nM"}, {"measurement": "GI50", "setting": "HCT-15", "value": 40.5, "unit": "nM"}, {"measurement": "GI50", "setting": "NCI/ADR-RES", "value": 17.3, "unit": "nM"}, {"measurement": "IC50", "setting": "[1]", "value": "33 ± 5", "unit": "nM"}, {"measurement": "GI50", "setting": "SK-MEL-2", "value": 3250, "unit": "nM"}, {"measurement": "GI50", "setting": "OVCAR-3", "value": 25.2, "unit": "nM"}, {"measurement": "IC50", "setting": "[2]", "value": 31, "unit": "nM"}, {"measurement": "GI50", "setting": "UACC-62", "value": 26.7, "unit": "nM"}, {"measurement": "GI50", "setting": "MOLT-4", "value": 36.9, "unit": "nM"}, {"measurement": "GI50", "setting": "HS 578T", "value": 24.7, "unit": "nM"}, {"measurement": "GI50", "setting": "PC-3", "value": 40.4, "unit": "nM"}, {"measurement": "GI50", "setting": "SNB-19", "value": 65.4, "unit": "nM"}, {"measurement": "GI50", "setting": "TK-10", "value": 61.7, "unit": "nM"}, {"measurement": "GI50", "setting": "A498", "value": 18.3, "unit": "nM"}, {"measurement": "GI50", "setting": "NCI-H460", "value": 33.2, "unit": "nM"}, {"measurement": "GI50", "setting": "MALME-3M", "value": "> 100000", "unit": "nM"}, {"measurement": "GI50", "setting": "UO-31", "value": 216, "unit": "nM"}, {"measurement": "GI50", "setting": "NCI-H552", "value": 15.1, "unit": "nM"}, {"measurement": "GI50", "setting": "[3]; Homo sapiens, 60 cell, read-out: Mean GI50, mean over all NCI 60 cell lines", "value": "< 91.2", "unit": "nM"}, {"measurement": "CC50", "setting": "[3]; Homo sapiens, 60 cell, read-out: Mean LC50", "value": 77600, "unit": "nM"}, {"measurement": "IC (TGI (total growth inhibition))", "setting": "[3]; Homo sapiens, 60 cell, read-out: Mean TGI", "value": 8910, "unit": "nM"}, {"measurement": "GI50", "setting": "[3]; read-out: Mean GI50, mean over all NCI 60 cell lines", "value": 58.9, "unit": "nM"}, {"measurement": "GI50", "setting": "OVCAR-5", "value": 94.8, "unit": "nM"}, {"measurement": "GI50", "setting": "NCI-H23", "value": 32.1, "unit": "nM"}, {"measurement": "GI50", "setting": "DU-145", "value": 27, "unit": "nM"}, {"measurement": "GI50", "setting": "MCF-7", "value": 33.5, "unit": "nM"}, {"measurement": "GI50", "setting": "T-47D", "value": 56200, "unit": "nM"}, {"measurement": "GI50", "setting": "K-562", "value": 41, "unit": "nM"}, {"measurement": "GI50", "setting": "EKVX", "value": 83.4, "unit": "nM"}, {"measurement": "GI50", "setting": "SK-MEL-5", "value": 26, "unit": "nM"}, {"measurement": "GI50", "setting": "HOP-62", "value": 55.8, "unit": "nM"}, {"measurement": "GI50", "setting": "OVCAR-4", "value": 37.3, "unit": "nM"}, {"measurement": "GI50", "setting": "M14", "value": 19.4, "unit": "nM"}, {"measurement": "GI50", "setting": "MDA-MB-468", "value": 23.3, "unit": "nM"}, {"measurement": "GI50", "setting": "HCT-116", "value": 26.4, "unit": "nM"}]}
